Experimental data taken from article PMC11172375, “Preclinical Evaluation of Biodistribution and Toxicity of [^211At]PSMA-5 in Mice and Primates for the Targeted Alpha Therapy against Prostate Cancer” (International Journal of Molecular Sciences, 2024).

How the values were obtained:
[1] = TLC metabolite analysis of blood samples, monkeys; format: in vivo; conditions: cynomolgus monkeys, plasma
Method: (§1) Monkeys were anesthetized with intramuscular administration of ketamine (10 mg/kg) and xylazine (0.5 mg/kg) with isoflurane inhalation anesthesia. Planar and Single Photon Emission Computed Tomography (SPECT) imaging was performed in monkeys using a γ-camera system (E-cam, Siemens, Erlangen, Germany) immediately after administration to 1 h and at 3 and 24 h post-administration of [^211At]PSMA-5 (9 MBq/kg), targeting the X-rays emitted from the daughter nuclide ^211Po (energy window: 79 keV ± 20%). Subsequent image analysis was performed by setting the regions of interest using Osirix MD software (Version 13, Pixmeo SARL, Bernex, Switzerland) and PMOD software (Version 3.903, PMOD Technologies, Fällanden, Switzerland). Blood samples were obtained pre-administration and at 1, 3, and 24 h post-administration, followed by euthanasia via bloodletting at 24 h.
The blood samples were centrifuged at 3000 rpm for 5 min, and the resulting plasma was mixed with twice the volume of ethanol, then agitated vigorously. The supernatants were analyzed by thin-layer chromatography (TLC).

[2] = Hematological examination in mice; format: in vivo, ICR mice; conditions: for %Lymph / Hb / Ht / Platelet / RBC / WBC: mice
Method: (§2) [^211At]PSMA-5 was administered intravenously to 25 mice, and its biodistribution was evaluated. For the toxicity study, three doses of [^211At]PSMA-5 (5, 12, and 35 MBq/kg, single dose) or saline were intravenously administered to 10 mice/group for the main evaluation point on day 1, and 5-mice/group for recovery evaluation on day 14, adhering to the ICH M3 (R2) guidelines. The dosage was determined based on our previous study using [^211At]NaAt. The monkeys were monitored for 24 h post-administration of [^211At]PSMA-5 (9 MBq/kg).
(§3) A blood cell counter was used for the measurements (CB-1010; ARKRAY, Inc., Kyoto, Japan). Red blood cell count (RBC), hemoglobin concentration (Hb), hematocrit (Ht), white blood cell count (WBC), platelet count (platelet), lymphocytes (%Lymph), monocytes (%Mon), and granulocytes (%Gra) were calculated. Plasma was analyzed using a dry clinical chemistry analyzer (Spotchem D-00 QR D-02; ARKRAY, Inc., Kyoto, Japan). The levels of aspartate aminotransferase (AST), alanine aminotransferase (ALT), gamma-glutamyl transpeptidase (γ-GTP), lactate dehydrogenase (LDH), alkaline phosphatase (ALP), creatine kinase (CK), amylase (AMY), total bilirubin (TBIL), creatinine (CRE), urea nitrogen (BUN), glucose (GLU), total protein (TP), albumin (ALB), total cholesterol (TCHO), triglyceride (TG), and electrolytes (Na, K, and Cl) were measured.

[3] = Blood chemistry analysis in monkeys; format: in vivo, cynomolgus monkeys; conditions: for ALB / ALP / ALT / AMY / AST / BUN / CK / CRE / K / LDH / Na / TBIL / TCHO / TG / TP / γ-GTP / GLU: monkeys, 9 MBq/kg i.v.
Method: as §2, §1, §3

[4] = Histological evaluation in monkeys; format: in vivo, cynomolgus monkeys; conditions: 9 MBq/kg, 24 h
Method: as §2
The brain, salivary gland, thyroid, heart, lungs, liver, kidney, adrenal gland, pancreas, spleen, thymus, stomach, small intestine, large intestine, bladder, prostate, and testes were collected on days 1 or 14 in mice and at 24 h in monkeys. Additionally, the pituitary gland, tongue, trachea, esophagus, mesenteric lymph nodes, epididymis, seminal vesicles, skin, mammary glands, spinal cord, bone, bone marrow (femur), eyeball, and optic nerve were collected from the mice. After fixation, paraffin sections were prepared and stained with hematoxylin and eosin (HE). All the specimens were evaluated by an expert in toxic pathology using an integrated fluorescence microscope (BZ-X810; Keyence Corporation. Osaka, Japan). In mice, the brain, salivary glands, heart, lungs, liver, gallbladder, spleen, kidneys, and testes were weighed according to ICH S4 guideline.

[5] = 24 hrs, might be affected by hemolysis

## O=C(O)CC[C@H](NC(=O)N[C@@H](CCCCNC(=O)[C@@H](Cc1ccc2ccccc2c1)NC(=O)c1ccc(CNC(=O)[C@@H](CCC(=O)O)NC(=O)[C@@H](CCC(=O)O)NC(=O)Cc2ccc([211At])cc2)cc1)C(=O)O)C(=O)O [[^211At]PSMA-5]
[1]
  metabolites in blood samples (TLC): no metabolites were detected
[2]; mice, 5, 12 and 35 MBq/kg, day 1 or day 14
  blood examination versus control group: no significant difference
[2]; 5 MBq/kg i.v., day 1
  %Lymph: 66.3 ± 15.8%
  Hb: 12.9 ± 0.4 g/dL
  Ht: 42.5 ± 1.4%
  Platelet: 976 ± 524 10^3 cell/µL
  RBC: 7.8 ± 0.3 10^6 cell/µL
  WBC: 6.3 ± 4.1 10^3 cell/µL
[2]; 5 MBq/kg i.v., day 14
  %Lymph: 70 ± 8.8%
  Hb: 14.4 ± 0.4 g/dL
  Ht: 45.4 ± 1%
  Platelet: 1120 ± 555 10^3 cell/µL
  RBC: 8.7 ± 0.2 10^6 cell/µL
  WBC: 6.9 ± 3.3 10^3 cell/µL
[2]; 12 MBq/kg i.v., day 1
  %Lymph: 62.6 ± 14.2%
  Hb: 13.0 ± 0.8 g/dL
  Ht: 42.6 ± 2.3%
  Platelet: 1329 ± 845 10^3 cell/µL
  RBC: 8.0 ± 0.5 10^6 cell/µL
  WBC: 8.3 ± 4.9 10^3 cell/µL
[2]; 12 MBq/kg i.v., day 14
  %Lymph: 59.9 ± 12.1%
  Hb: 13.8 ± 0.9 g/dL
  Ht: 43.9 ± 3%
  Platelet: 922 ± 608 10^3 cell/µL
  RBC: 8.3 ± 0.6 10^6 cell/µL
  WBC: 6.9 ± 1.9 10^3 cell/µL
[2]; 35 MBq/kg i.v., day 1
  %Lymph: 53.5 ± 16.9%
  Hb: 12.8 ± 0.7 g/dL
  Ht: 42.3 ± 2%
  Platelet: 952 ± 444 10^3 cell/µL
  RBC: 7.9 ± 0.3 10^6 cell/µL
  WBC: 8.0 ± 5.2 10^3 cell/µL
[2]; 35 MBq/kg i.v., day 14
  %Lymph: 53.9 ± 6.4%
  Hb: 13.6 ± 0.7 g/dL
  Ht: 43.1 ± 2.4%
  Platelet: 1331 ± 1037 10^3 cell/µL
  RBC: 8.4 ± 0.4 10^6 cell/µL
  WBC: 5.4 ± 2.8 10^3 cell/µL
[3]; cynomolgus monkeys, 9 MBq/kg
  LDH levels: elevated in both monkeys
  renal function or electrolyte levels: No significant changes
[3]; cynomolgus monkeys, 9 MBq/kg, 24 h post-administration
  monkeys with a mild increase in amylase: 1/2
[3]; 1 hr
  ALB: 2.5 ± 0.4 g/dL
  ALP: 835 ± 173.6 IU/L
  ALT: 11.3 ± 1.8 IU/L
  AMY: 291 ± 62.2 IU/L
  AST: 13.3 ± 4.6 IU/L
  BUN: 24.8 ± 2.5 mg/dL
  CK: 496 ± 321.4 IU/L
  CRE: 0.5 ± 0.2 mg/dL
  K: 4.3 ± 0.2 mEq/L
  LDH: 231 ± 27.9 IU/L
  Na: 140 ± 2.8 mEq/L
  TBIL: 0.3 ± 0.1 mg/dL
  TCHO: 84 ± 24 mg/dL
  TG: 25.5 ± 0.7 mg/dL
  TP: 3.6 ± 0.4 g/dL
  γ-GTP: 61.8 ± 8.1 IU/L
[3]; 1 hr, suggests contamination from the infusion fluid
  GLU: 309 ± 177 mg/dL
[3]; 3 hrs
  ALB: 2.5 ± 0.1 g/dL
  ALP: 890 ± 47.4 IU/L
  ALT: 12 ± 2.8 IU/L
  AMY: 342 ± 38.2 IU/L
  BUN: 27 ± 1.4 mg/dL
  CK: 522 ± 101.8 IU/L
  CRE: 0.75 ± 0.21 mg/dL
  GLU: 62 ± 56.6 mg/dL
  K: 4.9 ± 0.4 mEq/L
  LDH: 255 ± 4.9 IU/L
  Na: 143 ± 0 mEq/L
  TBIL: 0.3 ± 0.0 mg/dL
  TCHO: 91 ± 17 mg/dL
  TG: 28 ± 4.2 mg/dL
  TP: 3.7 ± 0.1 g/dL
  γ-GTP: 66.5 ± 19.1 IU/L
[3]; 24 hrs
  ALB: 2.7 ± 0 g/dL
  ALP: 768 ± 34.4 IU/L
  ALT: 24.8 ± 21 IU/L
  AMY: 565 ± 197 IU/L
  BUN: 35.7 ± 2.4 mg/dL
  CK: 713 ± 293.9 IU/L
  CRE: 0.7 ± 0.0 mg/dL
  GLU: 77.7 ± 1.4 mg/dL
  K: 4 ± 0.2 mEq/L
  Na: 146 ± 3.1 mEq/L
  TBIL: 0.7 ± 0.3 mg/dL
  TCHO: 90.7 ± 0.5 mg/dL
  TG: 28.7 ± 4.7 mg/dL
  TP: 4.2 ± 0.4 g/dL
  γ-GTP: 65 ± 17.9 IU/L
[3]; [5]
  AST: 38.7 ± 19.3 IU/L
  LDH: 471 ± 30.2 IU/L
[4]
  administration-related pathology in brain, salivary glands, thyroid, heart, liver, gallbladder, pancreas, rectum, kidney, bladder, adrenal glands, prostate: No pathological abnormalities
  crypt epithelial cells of the small and large (cecum) intestines: Mild single-cell necrosis/apoptosis
  tingible body macrophages in white pulp of the spleen, intraparotid and intrapulmonary lymph nodes: mild increase
